Results on three compounds are retold here after US20010033888A1, “Crystalline trehalose dihydrate, its preparation and uses” (KABUSHIK KAISHA HAYASHIBARA SEIBUTS KAGAKU KENKYUJO, priority 1998, published 2001).

The structures appear in SMILES notation. Where “and” joins values, the source holds several entries; their conditions need not be identical. Equal entries are not always repeated.

Common to all, as to format: physicochemical
A short description of data set [1]: Crystallinity by powdery X-ray diffraction analysis (Ruland method). Particulars: pulverized specimen, three specimens each, c axis about 10 mm, tetradodecahedral crystal. The procedure:
The crystallinity was determined by pulverizing a specimen and applying the Ruland method in Acta Crystallographica, Vol. 14, p. […] As a control, commercially available crystal sugar with a size equivalent to those of the specimens was examined similarly as above.

Data set [2] can be described thus: Intrusion disruptive strength by rheometer (needle about 3 mm in diameter). Particulars: stage elevated at 6 cm/min, three specimens each, strength when needle ruptures the crystal. How it is done: As a representative polyhedral crystalline trehalose dihydrate having the c axis of about 10 mm, obtained by the methods in the later described Examples A-1 and A-2, three specimens with a tetradodecahedral crystalline structure were used and examined for the crystallinity by powdery X-ray diffraction analysis and the intrusion disruptive strength by rheometer. The crystallinity was determined by pulverizing a specimen and applying the Ruland method in Acta Crystallographica, Vol. 14, p. 1,180 (1961) using “GEIGERFLEX RAD-IIB”, an X-ray diffraction analyzer using Cuka ray commercialized by Rigaku Corporation, Tokyo, Japan, based on the powdery X-ray diffraction intensity. Using “FUDOH RHEO METER NRM-2010J-CW”, a rheometer commercialized by Rheotech Co., Ltd., Tokyo, Japan; and a needle, about 3 mm in diameter, as an adaptor, the intrusion disruptive strength was determined by placing a polyhedral crystal on a specimen stage, elevating the stage to the direction of the needle at a rate of 6 cm/min, and measuring the strength (kg) when the needle intrudes into and ruptures the polyhedral crystal. As a control, commercially available crystal sugar with a size equivalent to those of the specimens was examined similarly as above.

Data set [3] can be described thus: Hygroscopicity / solidification of the crystal products. The following applies: dried crystal product; dihydrate.

`O.O.OC[C@H]1O[C@H](O[C@H]2O[C@H](CO)[C@@H](O)[C@H](O)[C@H]2O)[C@H](O)[C@@H](O)[C@@H]1O` [Example A-1, crystalline trehalose dihydrate]: the Crystallinity in data set [1] (dihydrate) is 84% and 83%. Also, the Intrusion disruptive strength in data set [2] (dihydrate) is 4.3 kg and 4.1 kg and 4.0 kg. Besides, the Hygroscopicity and solidification entry in data set [3] is on record as “do not substantially absorb moisture to be solidified”.
As for `O.O.OC[C@H]1O[C@H](O[C@H]2O[C@H](CO)[C@@H](O)[C@H](O)[C@H]2O)[C@H](O)[C@@H](O)[C@@H]1O` [Example A-2, crystalline trehalose dihydrate], the Crystallinity in data set [1] (dihydrate) was 84% and 83%. Besides, the Intrusion disruptive strength in data set [2] (dihydrate) was 3.8 kg and 3.5 kg. For the same compound, the Hygroscopicity and solidification result in data set [3] is “insubstantial hygroscopicity and solidification”.
For the compound `OC[C@H]1O[C@@](CO)(O[C@H]2O[C@H](CO)[C@@H](O)[C@H](O)[C@H]2O)[C@@H](O)[C@@H]1O` [Sugar crystal, reference compound], the Crystallinity in data set [1] was 84% and 85%. Also, the Intrusion disruptive strength in data set [2] is 9.9 kg and 10.0 kg.
